System: subcutaneous CT26.WT carcinoma xenografts
Test: Anti-cancer activity against subcutaneous CT26.WT carcinoma in Balb/c mice (tumor growth delay, response status)
Assay type: in vivo
Parameters: key to Tumor Growth Delay, statistical comparison vs G1 (Vehicle (Saline)) / Tumor Growth Delay, statistical comparison vs G2 (GMI-1359) / Tumor Growth Delay, statistical comparison vs G3 (anti KLH; Rat IgG2b, LTF-2) / Tumor Growth Delay, statistical comparison vs G4 (anti-mPD-L1) / Tumor Growth Delay, statistical comparison vs G5 (GMI-1359 + anti KLH; Rat IgG2b, LTF-2) / Tumor Growth Delay, statistical comparison vs G6 (GMI-1359 + anti-mPD-L1) / Tumor Growth Delay, statistical comparison vs G7 (Vehicle (Saline)): + = P < 0.05; NS = Nonsignificant
Method: The anti-cancer activity of an anti-mPD-L1 antibody (10F.9G2) and GMI-1359 was compared to a rat isotype control antibody against indeterminate subcutaneous CT26.WT carcinoma xenografts in female Balb/c mice. An immune profile of each mouse was determined by sampling tumors and spleens, staining for several markers of an active immune response, and detecting the levels of these markers via flow cytometry. Flow cytometry markers included: T-Cells (CD4^+ and CD8^+), Regulatory T-Cells (Tregs). (CD4^+/CD25^+/FoxP3^+), MDSCs (CD11b^+/Gr1^+) and co-expression of CCR7^+ and CD62^+ added to the existing CD4/CD8 panel.
CT26.WT cells were grown in RPMI 1640 medium which was modified with 1 mM Na pyruvate, 10 mM HEPES, 2.5 g/L glucose and supplemented with 10% nonheat-inactivated Fetal Bovine Serum (FBS) and 1% 100X Penicillin/Streptomycin/L-Glutamine (PSG). The growth environment was maintained in an incubator with a 5% CO2 atmosphere at 37° C.
When expansion was complete, the cells were trypsinized using 0.25% trypsin-EDTA solution. Following cell detachment, the trypsin was inactivated by dilution with complete growth medium and any clumps of cells were separated by pipetting. The cells were centrifuged at 200 rcf for 8 minutes at 4° C., the supernatant was aspirated, and the pellet was re-suspended in cold Dulbecco's Phosphate Buffered Saline (DPBS) by pipetting. An aliquot of the homogeneous cell suspension was diluted in a trypan blue solution and counted using a Luna automated cell counter. The preimplantation cell viability was 92%. The cell suspension was centrifuged at 200 rcf for 8 minutes at 4° C. The supernatant was aspirated and the cell pellet was re-suspended in cold serum-free medium to generate a final concentration of 2.50E+06 trypan-excluding cells/mi. The cell suspension was maintained on wet ice during implantation. Following implantation, an aliquot of the remaining cells was diluted with a trypan blue solution and counted to determine the post-implantation cell viability (91%).
Test animals were implanted subcutaneously, high in the axilla (just under the fore limb) on Day 0 with 5.00E+05 cells in 0.2 ml of serum-free medium using a 27-gauge needle and syringe.
All mice were sorted into study groups based on body weights such that the mean body weights in each group was within 10% of the overall mean. Treatment began on Day 3.
GMI-1359 was dosed intraperitoneally at 40 mg/kg, every day for 20 days (Days 3-22) and every day for 12 days (Days 3-14) for Groups 2 and 8, respectively.
Anti-KLH; Rat IgG2b, LTF-2 was dosed intraperitoneally at 10 mg/kg, every 3 days for 2 treatments, with 3 days off for 2.5 weeks (Days 3, 6, 10, 13 and 17) for Group 3. Group 9 was dosed intraperitoneally at 10 mg/kg, every 3 days for 2 treatments, with 3 days off for 2 weeks (Days 3, 6, 10 and 13).
Groups 4 and 10: Anti-mPD-L1, 10F.9G2 was dosed intraperitoneally at 10 mg/kg, every 3 days for 2 treatments, with 3 days off for 2.5 weeks (Days 3, 6, 10, 13 and 17) for Group 4.
Group 10 was dosed intraperitoneally at 10 mg/kg, every 3 days for 2 treatments, with 3 days off for 2 weeks (Days 3, 6, 10 and 13).
GMI-1359 was dosed in combination with anti-KLH; Rat IgG2b, LTF intraperitoneally at 40 mg/kg and 10 mg/kg, respectively. In Group 5, GMI-1359 was dosed once a day for 20 days (Days 3-22) and anti-KLH; Rat IgG2b was given every 3 days for 2 treatments, with 3 days off for 2.5 weeks (Days 3, 6, 10, 13 and 17). In Group 11, GMI-1359 was dosed once a day for 12 days (Days 3-14) and anti-KLH; Rat IgG2b was dosed every 3 days for 2 treatments, with 3 days off for 2 weeks and (Days 3, 6, 10 and 13). On days when both compounds were dosed, GMI-1359 was given first and then anti-KLH; Rat IgG2b, LTF was given within minutes thereafter.
Groups 6 and 12: GMI-1359 and anti-mPD-L1, 10F.9G2 were dosed in a combination regimen intraperitoneally at 40 mg/kg and 10 mg/kg, respectively. […]

[1] = listed as groups G8-G12 (sampling groups)
[2] = printed directly after the Group 8 / Group 12 values, group not named

CCC1CC(C(=O)NCCNCc2ccc(CN3CCCNCCNCCCNCC3)c(Br)c2)CC(OC2OC(CO)C(O)C(O[C@@H](CC3CCCCC3)C(=O)O)C2NC(C)=O)C1OC1OC(C)C(O)C(O)C1O (stereo partly drawn) [GMI-1359]
disease status of the group (Group 2, single agent): all animals were identified with progressive disease
statistical significance of anti-tumor effect (Groups 2, 4, 6): did not produce a statistically significant (p>0.05) anti-tumor effect
regressions or tumor free survivors (Groups 2-6): no regressions or tumor free survivors
median time to evaluation size (750 mm^3) from the start of dosing (Groups 2-6: GMI-1359 40 mg/kg IP QDx20 (Days 3-22), antibody 10 mg/kg IP Days 3,6,10,13,17): 18.4 days
median post Day 9 tumor volume doubling time (Groups 2-6: GMI-1359 40 mg/kg IP QDx20, antibody 10 mg/kg IP Days 3,6,10,13,17): 3.3 days
incidence of progressive disease (Groups 2-6, tumor burden >=2 fold that on Day 9): 100%
tumor growth delay (T-C) (Groups 2-6 vs Group 1 saline, evaluation size 750 mm^3, GMI-1359 40 mg/kg IP QDx20, antibody 10 mg/kg IP Days 3,6,10,13,17): 2.5 days
regressions or tumor free survivors (Groups 8-12 (sampling groups)): no regressions or tumor free survivors
incidence of progressive disease (Groups 8-12 (sampling groups, euthanized Day 15)): 100%
median time to evaluation size (Groups 8-12: GMI-1359 40 mg/kg IP QDx12 (Days 3-14), antibody 10 mg/kg IP Days 3,6,10,13, euthanized Day 15): 14.3 days
median post Day 9 tumor volume doubling time (Groups 8-12: GMI-1359 40 mg/kg IP QDx12, antibody 10 mg/kg IP Days 3,6,10,13, euthanized Day 15): 1.8 days
Tumor Growth Delay, statistical comparison vs G1 (Vehicle (Saline)) (listed as groups G2-G6, time to evaluation size 750 mm^3): NS
Tumor Growth Delay, statistical comparison vs G1 (Vehicle (Saline)) [1]: NS
Tumor Growth Delay, statistical comparison vs G2 (GMI-1359) [1]: NS
Tumor Growth Delay, statistical comparison vs G3 (anti KLH; Rat IgG2b, LTF-2) [1]: NS
Tumor Growth Delay, statistical comparison vs G4 (anti-mPD-L1) [1]: NS
Tumor Growth Delay, statistical comparison vs G5 (GMI-1359 + anti KLH; Rat IgG2b, LTF-2) [1]: NS
Tumor Growth Delay, statistical comparison vs G6 (GMI-1359 + anti-mPD-L1) [1]: NS
Tumor Growth Delay, statistical comparison vs G7 (Vehicle (Saline)) [1]: NS
median time to progression [2]: 14.5 days
progression free survival period [2]: 5.5 days
